Assay: Crystallinity analysis by X-ray diffraction (XRD)
Assay type: physicochemical
Conditions: pure API or extrudate after melt extrusion
Method: The mixtures of examples 1 to 4 were extrudated, comminuted and subsequently sifted through a sieve of 40 mesh (0.42 mm) and analyzed. X-ray diffraction analysis was carried out for crytallinity. Dissolution rate analysis of both active compound was carried out to check solubility enhancement.

Crystallinity by X-ray diffraction (XRD pattern) | Structure (SMILES)
crystalline form | Cc1cccc(C)c1OCC(=O)N[C@@H](Cc1ccccc1)[C@@H](O)C[C@H](Cc1ccccc1)NC(=O)[C@H](C(C)C)N1CCCNC1=O [Lopinavir]
crystalline form | CC(C)c1nc(CN(C)C(=O)N[C@H](C(=O)N[C@@H](Cc2ccccc2)C[C@H](O)[C@H](Cc2ccccc2)NC(=O)OCc2cncs2)C(C)C)cs1 [Ritonavir]

From US20130142877A1, “PHARMACEUTICAL DOSAGE FORM COMPRISING ONE OR MORE ANTIRETROVIRAL ACTIVE INGREDIENTS” (EVONIK ROEHM GmbH, priority 2010, published 2013)
